# Assay results as given in US20180318386A1, “PEPTIDES AND METHODS OF TREATING ENDOMETRIOSIS USING THE SAME” (BIOINCEPT, LLC, priority 2014, published 2018).
# Tests used:
# [1] = system: CD4+/CD25+/FoxP3+ cells; assay: FITC-PIF binding to regulatory T-cells, two- and three-color flow cytometry; format: cell-based, human; details: 0-100 uM FITC-labelled peptide
# [2] = system: Lymphocytes; assay: FITC-PIF binding to mare immune cells, flow cytometry: lymphocytes; format: cell-based
# From the text: (§1) Method: whole blood was collected from jugular vein of pregnant (n=4) and non-pregnant (n=8) mares into lithium heparin vacutainers. Whole blood was layered over histopaque (Sigma) density gradient and red cells were allowed to settle through the gradient, leaving a leukocyte-rich plasma layer above. Cells were washed twice in sterile PBS and any remaining RBCs lysed with 0.16 M ammonium chloride solution. […] Cell types were separated based upon their scatter characteristics. […] FIG. 20 and Table 20 show mean+/−SEM in both pregnant and non-pregnant mares, and depicts binding characteristics showing significant differences between FITC-PIF and control, P<0.001.
# [3] = system: Granulocytes; assay: FITC-PIF binding to mare immune cells, flow cytometry: granulocytes; format: cell-based
# From the text: as §1
# [4] = system: Monocytes; assay: FITC-PIF binding to mare immune cells, flow cytometry: monocytes; format: cell-based
# From the text: as §1
# [5] = Non-pregnant mares, 1 ug/ml FITC-labelled peptide (n = 8)
# [6] = Non-pregnant mares, 5 ug/ml FITC-labelled peptide (n = 8)
# [7] = Non-pregnant mares, 10 ug/ml FITC-labelled peptide (n = 7)
# [8] = Pregnant mares, 1 ug/ml FITC-labelled peptide (n = 4)
# [9] = Pregnant mares, 5 ug/ml FITC-labelled peptide (n = 4)
# [10] = Pregnant mares, 10 ug/ml FITC-labelled peptide (n = 4)
sequence,measurement,setting,value
"GRVDPSNKSMPKDIA (scrPIF-1 (15)) [PIFscr, control]",binding to CD4+/CD25+/FoxP3+ cells,[1],minimal binding
same,"binding to Lymphocytes, Mean",[2]; [5],0.27
same,"binding to Lymphocytes, Mean",[2]; [6],1.08
same,"binding to Lymphocytes, Mean",[2]; [7],2.04
same,"binding to Lymphocytes, Mean",[2]; [8],0.12
same,"binding to Lymphocytes, Mean",[2]; [9],0.78
same,"binding to Lymphocytes, Mean",[2]; [10],2.84
same,"binding to Granulocytes, Mean",[3]; [5],0.26
same,"binding to Granulocytes, Mean",[3]; [6],1.78
same,"binding to Granulocytes, Mean",[3]; [7],3.89
same,"binding to Granulocytes, Mean",[3]; [8],0.09
same,"binding to Granulocytes, Mean",[3]; [9],0.93
same,"binding to Granulocytes, Mean",[3]; [10],4.51
same,"binding to Monocytes, Mean",[4]; [5],1.10
same,"binding to Monocytes, Mean",[4]; [6],5.20
same,"binding to Monocytes, Mean",[4]; [7],12.39
same,"binding to Monocytes, Mean",[4]; [8],0.78
same,"binding to Monocytes, Mean",[4]; [9],6.36
same,"binding to Monocytes, Mean",[4]; [10],31.07
